Measurements: PubChem BioAssay AID330 (DTP/NCI, 2004)
Several values for one entry are separate records, joined by “and”; a condition that tells them apart may be missing. Equal entries are not always repeated. Inconclusive results and toxic doses are left out. How the source made its calls: active means survival T/C of 150% or more; inactive means T/C below 125% in these data.

Tested on: P388 leukemia ip, CD2F1 mice, survival T/C
Assay: NCI In Vivo Anticancer Drug Screen. Data for tumor model P388 Leukemia (intraperitoneal) in CD2F1 (CDF1) mice
Conditions: endpoint: median survival time, higher = longer survival
Summary of the method: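 Mice carrying the transplanted tumor received test compound or vehicle. Survival was recorded in each group, and the value is the treated-group measurement divided by that of the vehicle-treated control group.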

[1] = dose: 50.0 mg/kg/injection, schedule: Q01DX009 (ip), vehicle: saline
[2] = dose: 100.0 mg/kg/injection, schedule: Q01DX009 (ip), vehicle: saline
[3] = dose: 200.0 mg/kg/injection, schedule: Q01DX009 (ip), vehicle: saline
[4] = dose: 60.0 mg/kg/injection, schedule: Q01DX005 (ip), vehicle: Klucel (hydroxypropylcellulose) (HPC)
[5] = dose: 120.0 mg/kg/injection, schedule: Q01DX005 (ip), vehicle: Klucel (hydroxypropylcellulose) (HPC)
[6] = dose: 240.0 mg/kg/injection, schedule: Q01DX005 (ip), vehicle: Klucel (hydroxypropylcellulose) (HPC)
[7] = dose: 50.0 mg/kg/injection, schedule: Q01DX009 (ip), vehicle: saline with Tween-80
[8] = dose: 100.0 mg/kg/injection, schedule: Q01DX009 (ip), vehicle: saline with Tween-80
[9] = dose: 60.0 mg/kg/injection, schedule: Q01DX005 (ip), vehicle: saline with Tween-80
[10] = dose: 120.0 mg/kg/injection, schedule: Q01DX005 (ip), vehicle: saline with Tween-80
[11] = dose: 240.0 mg/kg/injection, schedule: Q01DX005 (ip), vehicle: saline with Tween-80
[12] = dose: 12.5 mg/kg/injection, schedule: Q01DX009 (ip), vehicle: saline
[13] = dose: 25.0 mg/kg/injection, schedule: Q01DX009 (ip), vehicle: saline
[14] = dose: 50.0 mg/kg/injection, schedule: Q01DX009 (ip), vehicle: Klucel (hydroxypropylcellulose) (HPC)
[15] = dose: 100.0 mg/kg/injection, schedule: Q01DX009 (ip), vehicle: Klucel (hydroxypropylcellulose) (HPC)

Measured: T/C

COc1cc2ccnc(Cc3ccc4c(c3)OCO4)c2cc1OC
inactive: [1] 115 % of control | [2] 95 % of control | dose: 100.0 mg/kg/injection, schedule: Q04DX003 (ip), vehicle: saline 100 % of control | [3] 100 % of control | dose: 200.0 mg/kg/injection, schedule: Q04DX003 (ip), vehicle: saline 100 % of control | dose: 400.0 mg/kg/injection, schedule: Q04DX003 (ip), vehicle: saline 95 % of control

COc1cc(CCNC(C)=O)cc(OC)c1OC
inactive: dose: 25.0 mg/kg/injection, schedule: Q01DX005 (ip), vehicle: water 100 % of control | dose: 50.0 mg/kg/injection, schedule: Q01DX005 (ip), vehicle: water 104 % of control | dose: 100.0 mg/kg/injection, schedule: Q01DX005 (ip), vehicle: water 100 % of control | dose: 200.0 mg/kg/injection, schedule: Q01DX005 (ip), vehicle: water 91 % of control

CC(c1ccc(OCc2ccccc2)cc1)c1cc2c(cc1OCCO)OCO2 (stereo not drawn)
inactive: dose: 50.0 mg/kg/injection, schedule: Q01DX005 (ip), vehicle: saline with Tween-80 98 % of control | dose: 100.0 mg/kg/injection, schedule: Q01DX005 (ip), vehicle: saline with Tween-80 100 % of control | dose: 200.0 mg/kg/injection, schedule: Q01DX005 (ip), vehicle: saline with Tween-80 100 % of control

CC1=C(O)c2cc3c(cc2C(=O)C1=O)OCO3
inactive: [4] 98 % of control | [5] 88 % of control | [6] 92 % of control

O=C(O)c1nn(Cc2ccc(Cl)cc2)c2ccccc12
inactive: [7] 109 % of control | [8] 103 % of control | dose: 200.0 mg/kg/injection, schedule: Q01DX009 (ip), vehicle: saline with Tween-80 110 % of control

C[Si](C)(C)Cn1cc(F)c(=O)n(C[Si](C)(C)C)c1=O
inactive: [4] 103 % of control | [5] 103 % of control | [6] 97 % of control

FC(F)(F)C(F)(F)C(F)(F)C(F)(F)C(F)(F)C(F)(F)C[CH2][Sn]([Cl])([Cl])[CH2]CC(F)(F)C(F)(F)C(F)(F)C(F)(F)C(F)(F)C(F)(F)F
inactive: [9] 118 % of control | [10] 119 % of control

Cc1[nH]c(=O)nc(Nc2ccc(Cl)cc2)c1C(=O)N1CCN(CCO)CC1
inactive: [9] 93 % of control | [10] 90 % of control and 93 % of control | [11] 102 % of control and 93 % of control

Nc1c(C(=O)Nc2ccc3c(c2)C(=O)c2ccccc2C3=O)ccc2c1C(=O)c1ccccc1C2=O
inactive: dose: 50.0 mg/kg/injection, schedule: Q01DX005 (ip), vehicle: Klucel (hydroxypropylcellulose) (HPC) 107 % of control | dose: 100.0 mg/kg/injection, schedule: Q01DX005 (ip), vehicle: Klucel (hydroxypropylcellulose) (HPC) 90 % of control | dose: 200.0 mg/kg/injection, schedule: Q01DX005 (ip), vehicle: Klucel (hydroxypropylcellulose) (HPC) 100 % of control

COc1ccc(-n2cnc3c(cnn3CN3CCCCC3)c2=O)cc1
inactive: [4] 104 % of control | [5] 103 % of control

c1ccc2c(c1)Sc1ccccc1N2CCCN1CCCC1
inactive: [12] 105 % of control | [13] 104 % of control | dose: 25.0 mg/kg/injection, schedule: Q04DX002 (ip), vehicle: saline 111 % of control | [1] 112 % of control and 120 % of control | dose: 50.0 mg/kg/injection, schedule: Q04DX002 (ip), vehicle: saline 111 % of control | dose: 100.0 mg/kg/injection, schedule: Q04DX002 (ip), vehicle: saline 101 % of control

COc1ccccc1N1C(=O)/C(=N\OC(=O)c2c(-c3c(Cl)cccc3Cl)noc2C)SC1=S
inactive: [1] 104 % of control | [2] 90 % of control | [3] 89 % of control

O=C(Nc1cc(Cl)cc(Cl)c1)OCCCl
inactive: [9] 100 % of control | [10] 98 % of control | [11] 91 % of control

CC1CC(C)NC(C)C1 (stereo not drawn)
inactive: [12] 86 % of control | [13] 103 % of control | [1] 97 % of control | [2] 93 % of control

Cc1ccc(Br)c(C(O)(C(F)(F)F)C(F)(F)F)c1
inactive: dose: 100.0 mg/kg/injection, schedule: Q01DX001 (ip), vehicle: other 103 % of control and 104 % of control | dose: 200.0 mg/kg/injection, schedule: Q01DX001 (ip), vehicle: other 101 % of control | dose: 400.0 mg/kg/injection, schedule: Q01DX001 (ip), vehicle: other 111 % of control and 108 % of control

CC/C=C/c1cc2ccccc2c(=O)o1
inactive: dose: 12.5 mg/kg/injection, schedule: Q01DX009 (ip), vehicle: Klucel (hydroxypropylcellulose) (HPC) 106 % of control | dose: 25.0 mg/kg/injection, schedule: Q01DX009 (ip), vehicle: Klucel (hydroxypropylcellulose) (HPC) 114 % of control | [14] 100 % of control | [15] 110 % of control

CC1=Nc2cc(Cl)c(Cl)cc2N(C)/C1=C/C1=C(Cl)C(=O)c2ccccc2C1=O
inactive: dose: 6.25 mg/kg/injection, schedule: Q01DX009 (ip), vehicle: saline with Tween-80 114 % of control | dose: 12.5 mg/kg/injection, schedule: Q01DX009 (ip), vehicle: saline with Tween-80 95 % of control | dose: 25.0 mg/kg/injection, schedule: Q01DX009 (ip), vehicle: saline with Tween-80 107 % of control | [7] 105 % of control | [8] 104 % of control

CCOC(=O)/C=C/C(CO)OC(/C=C/C(=O)OCC)n1cnc2c(N)ncnc21 (stereo not drawn)
inactive: dose: 100.0 mg/kg/injection, schedule: Q04DX002 (ip), vehicle: Klucel (hydroxypropylcellulose) (HPC) 101 % of control | dose: 200.0 mg/kg/injection, schedule: Q04DX002 (ip), vehicle: Klucel (hydroxypropylcellulose) (HPC) 108 % of control | dose: 400.0 mg/kg/injection, schedule: Q04DX002 (ip), vehicle: Klucel (hydroxypropylcellulose) (HPC) 111 % of control

Cc1cc(=O)n2[nH]c(-c3ccc(Cl)cc3)nc2n1
inactive: [14] 106 % of control | [15] 103 % of control | dose: 200.0 mg/kg/injection, schedule: Q01DX009 (ip), vehicle: Klucel (hydroxypropylcellulose) (HPC) 100 % of control

CN(C)C(=O)N1OC(CN)CC1=O (stereo not drawn)
inactive: [4] 105 % of control | [5] 104 % of control | [6] 105 % of control

C=C(C)C1CCC2(C)CC3C(=C)CC(O)C(O)C3(C)CCC12 (stereo not drawn)
inactive: dose: 4.0 mg/kg/injection, schedule: Q01DX009 (ip), vehicle: Klucel (hydroxypropylcellulose) (HPC) 104 % of control | dose: 8.0 mg/kg/injection, schedule: Q01DX009 (ip), vehicle: Klucel (hydroxypropylcellulose) (HPC) 101 % of control | dose: 16.0 mg/kg/injection, schedule: Q01DX009 (ip), vehicle: Klucel (hydroxypropylcellulose) (HPC) 101 % of control | dose: 32.0 mg/kg/injection, schedule: Q01DX009 (ip), vehicle: Klucel (hydroxypropylcellulose) (HPC) 104 % of control
